The values below are quoted from earlier work in publication PMC8513935.

Data set [1] in a line: log P octanol/water from commercial databases, averaged (the ESI). Particulars: Octanol (wet), 25 C.
The nature of data set [2]: experimental, compiled by the authors from the literature (the ESI cites the sources).
A short description of data set [3]: derived by the authors as gas->solvent minus gas->water (a hypothetical dry solvent; the ESI), not a two-phase measurement.

On to `C1CCOC1`, for which the log K of transfer, water to solvent is 0.46 log10 K in data set [1]; 0.76 log10 K in data set [3] (1,2-Dichloroethane, 25 C); 0.46 log10 K in data set [3] (Acetone, 25 C); 0.57 log10 K in data set [3] (CCl4, 25 C); 0.41 log10 K in data set [3] (Chlorobenzene, 25 C); 1.3 log10 K in data set [3] (Chloroform, 25 C). For the same compound, the log K of transfer, water to solvent is 0.23 log10 K in data set [3] (Di-n-butyl ether, 25 C); 0.076 log10 K in data set [3] (Hexadecane, 25 C); 0.14 log10 K in data set [3] (Hexane, 25 C); 0.69 log10 K in data set [3] (Methanol, 25 C); 0.3 log10 K in data set [3] (Octan-1-ol(dry), 25 C); 0.34 log10 K in data set [3] (Propan-1-ol, 25 C). The log K of transfer, water to solvent is 0.33 log10 K in data set [3] (Propan-2-ol, 25 C) and 0.58 log10 K in data set [3] (Tetrahydrofuran, 25 C). In addition, the log K of transfer, gas to solvent in data set [2] (1,2-Dichloroethane, 25 C) was 3.32 log10 K; in data set [2] (CCl4, 25 C) it was 3.13 log10 K; in data set [2] (Chlorobenzene, 25 C) it was 2.97 log10 K; in data set [2] (Chloroform, 25 C), 3.86 log10 K; in data set [2] (Di-n-butyl ether, 25 C), 2.79 log10 K; in data set [2] (Hexadecane, 25 C) it was 2.63 log10 K. Moreover, the log K of transfer, gas to solvent in data set [2] (Hexane, 25 C) is 2.7 log10 K; in data set [2] (Methanol, 25 C), 3.25 log10 K; in data set [2] (Octan-1-ol, 25 C) it was 2.86 log10 K; in data set [2] (Propan-1-ol, 25 C) it was 2.9 log10 K; in data set [2] (Propan-2-ol, 25 C), 2.89 log10 K; in data set [2] (Propanone, 25 C), 3.02 log10 K. Besides, the log K of transfer, gas to solvent was 3.14 log10 K in data set [2] (Tetrahydrofuran, 25 C) and 2.56 log10 K in data set [2] (Water, 25 C).

`CCCCC(C)=O`: the log K of transfer, water to solvent in data set [1] is 1.38 log10 K; in data set [3] (Benzene, 25 C), 1.81 log10 K; in data set [3] (CCl4, 25 C), 1.52 log10 K; in data set [3] (Chlorobenzene, 25 C), 1.87 log10 K; in data set [3] (Cyclohexane, 25 C), 1.02 log10 K; in data set [3] (Hexadecane, 25 C) it was 0.876 log10 K. For the same compound, the log K of transfer, water to solvent in data set [3] (Hexane, 25 C) was 1.02 log10 K; in data set [3] (Methanol, 25 C), 1.41 log10 K; in data set [3] (Octan-1-ol(dry), 25 C), 1.27 log10 K; in data set [3] (Toluene, 25 C), 1.7 log10 K. The log K of transfer, gas to solvent was 4.22 log10 K in data set [2] (Benzene, 25 C); 3.93 log10 K in data set [2] (CCl4, 25 C); 4.28 log10 K in data set [2] (Chlorobenzene, 25 C); 3.42 log10 K in data set [2] (Cyclohexane, 25 C); 3.28 log10 K in data set [2] (Hexadecane, 25 C); 3.43 log10 K in data set [2] (Hexane, 25 C). Moreover, the log K of transfer, gas to solvent is 3.82 log10 K in data set [2] (Methanol, 25 C); 3.68 log10 K in data set [2] (Octan-1-ol, 25 C); 4.11 log10 K in data set [2] (Toluene, 25 C); 2.41 log10 K in data set [2] (Water, 25 C).

With `C/C=C\C`, the log K of transfer, water to solvent in data set [1] is 2.33 log10 K; in data set [3] (Hexadecane, 25 C), 2.73 log10 K. Besides, the log K of transfer, gas to solvent in data set [2] (Hexadecane, 25 C) was 1.74 log10 K; in data set [2] (Water, 25 C), -0.99 log10 K.

`CCCCCCCCO`: the log K of transfer, water to solvent is 3.07 log10 K in data set [1]; 2.91 log10 K in data set [3] (Benzene, 25 C); 3.01 log10 K in data set [3] (Butanone, 25 C); 2.69 log10 K in data set [3] (Butyronitrile, 25 C); 2.09 log10 K in data set [3] (CCl4, 25 C); 1.62 log10 K in data set [3] (Hexadecane, 25 C). Moreover, the log K of transfer, water to solvent was 3.29 log10 K in data set [3] (Hexan-1-ol, 25 C); 2.89 log10 K in data set [3] (Methanol, 25 C); 3.03 log10 K in data set [3] (Octan-1-ol(dry), 25 C). The log K of transfer, gas to solvent is 5.91 log10 K in data set [2] (Benzene, 25 C); 6.01 log10 K in data set [2] (Butanone, 25 C); 5.69 log10 K in data set [2] (Butyronitrile, 25 C); 5.09 log10 K in data set [2] (CCl4, 25 C); 4.62 log10 K in data set [2] (Hexadecane, 25 C); 6.29 log10 K in data set [2] (Hexan-1-ol, 25 C). The log K of transfer, gas to solvent in data set [2] (Methanol, 25 C) was 5.89 log10 K; in data set [2] (Octan-1-ol, 25 C), 6.03 log10 K; in data set [2] (Water, 25 C) it was 3 log10 K.

Take `CCC(C)O` (stereo not shown): the log K of transfer, water to solvent is 0.65 log10 K in data set [1]; 0.77 log10 K in data set [3] (2-Methylpropan-2-ol, 25 C); 0.64 log10 K in data set [3] (Butan-1-ol, 25 C); 0.7 log10 K in data set [3] (Butan-2-ol, 25 C); 0.41 log10 K in data set [3] (Butanone, 25 C); -0.54 log10 K in data set [3] (CCl4, 25 C). The log K of transfer, water to solvent in data set [3] (Chlorobenzene, 25 C) is -0.27 log10 K; in data set [3] (Chloroform, 25 C), 0.3 log10 K; in data set [3] (Decan-1-ol, 25 C), 0.506 log10 K; in data set [3] (Hexadecane, 25 C), -1.05 log10 K; in data set [3] (Hexane, 25 C) it was -0.783 log10 K; in data set [3] (Octan-1-ol(dry), 25 C), 0.41 log10 K. Moreover, the log K of transfer, gas to solvent in data set [2] (2-Methylpropan-2-ol, 25 C) is 4.16 log10 K; in data set [2] (Butan-1-ol, 25 C), 4.03 log10 K; in data set [2] (Butan-2-ol, 25 C), 4.09 log10 K; in data set [2] (Butanone, 25 C) it was 3.8 log10 K; in data set [2] (CCl4, 25 C), 2.85 log10 K; in data set [2] (Chlorobenzene, 25 C), 3.12 log10 K. In addition, the log K of transfer, gas to solvent is 3.69 log10 K in data set [2] (Chloroform, 25 C); 3.89 log10 K in data set [2] (Decan-1-ol, 25 C); 2.34 log10 K in data set [2] (Hexadecane, 25 C); 2.61 log10 K in data set [2] (Hexane, 25 C); 3.8 log10 K in data set [2] (Octan-1-ol, 25 C); 3.39 log10 K in data set [2] (Water, 25 C).

For `O=C1CCCCN1`, the log K of transfer, water to solvent in data set [1] was -0.465 log10 K; in data set [3] (Hexadecane, 25 C), -2.79 log10 K. For the same compound, the log K of transfer, gas to solvent in data set [2] (Hexadecane, 25 C) was 4.18 log10 K; in data set [2] (Water, 25 C), 6.97 log10 K.

As for `CC1CCCC1`, the log K of transfer, water to solvent is 3.37 log10 K in data set [1]; 3.74 log10 K in data set [3] (Heptan-1-ol, 25 C); 4.07 log10 K in data set [3] (Hexadecane, 25 C); 3.74 log10 K in data set [3] (Pentan-1-ol, 25 C). Moreover, the log K of transfer, gas to solvent in data set [2] (Heptan-1-ol, 25 C) is 2.57 log10 K; in data set [2] (Hexadecane, 25 C) it was 2.91 log10 K; in data set [2] (Pentan-1-ol, 25 C) it was 2.57 log10 K; in data set [2] (Water, 25 C), -1.17 log10 K.
